Data published in article PMC10009787 (ACS Medicinal Chemistry Letters, 2023).
Entries after “also recorded” stand apart in the source; their conditions may differ. Like-named read-outs stand apart in the source and are kept apart here.

Experiments:
KIT = KIT (Homo sapiens, UniProt P10721); test: SelectScreen kinase profiling; type: biochemical; conditions: average of duplicate
PDGFRA (PDGFR alpha) = PDGFRA (PDGFR alpha) (Homo sapiens, UniProt P16234); test: SelectScreen kinase profiling; type: biochemical; conditions: average of duplicate
PDGFRB (PDGFR beta) = PDGFRB (PDGFR beta) (Homo sapiens, UniProt P09619); test: SelectScreen kinase profiling; type: biochemical; conditions: average of duplicate
ERN1 = ERN1 (Homo sapiens, UniProt O75460); test: SelectScreen kinase profiling; type: biochemical; conditions: average of duplicate
MAP2K5 (MEK5) = MAP2K5 (MEK5) (Homo sapiens, UniProt Q13163); test: SelectScreen kinase profiling; type: biochemical; conditions: average of duplicate
BLK = BLK (Homo sapiens, UniProt P51451); test: AssayQuant kinact/Ki profiling, PhosphoSens CSox-based kinetic assay; type: biochemical; design: purchased ThermoFisher / Life Technologies SelectScreen PV3683; conditions: for kinact/KI / BLK kinact/Ki: 2.5 nM enzyme, 1000 µM ATP, two step fit; for kinact: fitted value, two step
BMX = biological target: T1, BMX (Homo sapiens, UniProt P51813); test: as above; type: biochemical; design: purchased ThermoFisher / Life Technologies SelectScreen PV3371; conditions: for kinact/KI / BMX kinact/Ki: 5.0 nM enzyme, 1000 µM ATP, two step fit; for kinact: fitted value, two step
T1 sequence (P51813 1-675): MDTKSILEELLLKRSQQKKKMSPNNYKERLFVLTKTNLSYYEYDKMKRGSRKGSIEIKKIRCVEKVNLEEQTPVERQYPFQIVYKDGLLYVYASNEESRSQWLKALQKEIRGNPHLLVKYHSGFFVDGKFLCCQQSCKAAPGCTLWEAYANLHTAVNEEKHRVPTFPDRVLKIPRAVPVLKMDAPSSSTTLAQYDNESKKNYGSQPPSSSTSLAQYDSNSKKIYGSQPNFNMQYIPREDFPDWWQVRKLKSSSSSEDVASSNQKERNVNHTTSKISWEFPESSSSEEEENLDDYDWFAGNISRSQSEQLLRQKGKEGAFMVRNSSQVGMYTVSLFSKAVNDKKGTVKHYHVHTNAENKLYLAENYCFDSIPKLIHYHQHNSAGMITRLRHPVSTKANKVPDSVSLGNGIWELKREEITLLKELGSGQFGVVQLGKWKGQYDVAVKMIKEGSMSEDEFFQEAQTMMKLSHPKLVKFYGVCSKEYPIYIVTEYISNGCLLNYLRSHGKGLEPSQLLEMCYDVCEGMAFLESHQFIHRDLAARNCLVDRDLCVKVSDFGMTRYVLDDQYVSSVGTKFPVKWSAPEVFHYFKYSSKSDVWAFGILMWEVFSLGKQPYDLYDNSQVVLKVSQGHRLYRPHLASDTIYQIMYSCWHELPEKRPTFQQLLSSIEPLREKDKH

HCK = HCK (Homo sapiens, UniProt P08631); test: as above; conditions: for kinact: read-out: HCK kinact; for kinact/KI: read-out: HCK kinact/KI
SRMS (Srm) = SRMS (Srm) (Homo sapiens, UniProt Q9H3Y6); test: SelectScreen kinase profiling; type: biochemical; conditions: average of duplicate
RET M918T = RET M918T (Homo sapiens, UniProt P07949, M918T); test: SelectScreen kinase profiling; type: biochemical; conditions: average of duplicate
BTK = BTK (Homo sapiens, UniProt Q06187); test: SelectScreen kinase profiling / Z′-Lyte kinase assay
ITK = biological target: T2, ITK (Homo sapiens, UniProt Q08881); test: as above
T2 sequence (Q08881 1-620): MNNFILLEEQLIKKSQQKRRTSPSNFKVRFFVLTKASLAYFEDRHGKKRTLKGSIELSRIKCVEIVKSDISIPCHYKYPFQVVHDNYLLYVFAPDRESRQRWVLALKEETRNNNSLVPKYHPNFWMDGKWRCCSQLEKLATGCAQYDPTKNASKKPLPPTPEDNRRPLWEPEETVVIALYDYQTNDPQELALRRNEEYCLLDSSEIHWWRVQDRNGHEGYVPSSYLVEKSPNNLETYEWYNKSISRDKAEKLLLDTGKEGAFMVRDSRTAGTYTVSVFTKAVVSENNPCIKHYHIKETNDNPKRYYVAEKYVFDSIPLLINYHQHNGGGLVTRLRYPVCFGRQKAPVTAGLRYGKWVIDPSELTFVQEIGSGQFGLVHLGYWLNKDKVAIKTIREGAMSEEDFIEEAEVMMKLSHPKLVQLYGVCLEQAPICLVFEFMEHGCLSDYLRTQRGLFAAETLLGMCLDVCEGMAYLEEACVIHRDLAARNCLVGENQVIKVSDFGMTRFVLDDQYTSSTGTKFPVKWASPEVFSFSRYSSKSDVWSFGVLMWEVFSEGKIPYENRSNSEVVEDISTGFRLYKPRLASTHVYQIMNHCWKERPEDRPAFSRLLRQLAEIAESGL

Sequence of BLK (P51451 whole entry): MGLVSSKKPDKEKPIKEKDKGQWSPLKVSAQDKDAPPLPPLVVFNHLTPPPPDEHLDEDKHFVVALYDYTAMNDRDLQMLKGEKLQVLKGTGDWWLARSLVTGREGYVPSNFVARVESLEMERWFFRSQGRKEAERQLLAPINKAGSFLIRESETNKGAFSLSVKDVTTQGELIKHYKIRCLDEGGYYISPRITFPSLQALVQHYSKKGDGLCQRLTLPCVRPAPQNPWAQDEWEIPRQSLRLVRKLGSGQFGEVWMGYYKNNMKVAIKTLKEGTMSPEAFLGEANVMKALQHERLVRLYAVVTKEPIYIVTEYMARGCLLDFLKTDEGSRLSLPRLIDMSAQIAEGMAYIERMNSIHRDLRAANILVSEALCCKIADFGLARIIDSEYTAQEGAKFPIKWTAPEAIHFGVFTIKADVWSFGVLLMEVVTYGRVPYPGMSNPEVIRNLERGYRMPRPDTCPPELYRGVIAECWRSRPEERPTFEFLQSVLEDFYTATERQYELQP
Sequence of HCK (P08631 whole entry): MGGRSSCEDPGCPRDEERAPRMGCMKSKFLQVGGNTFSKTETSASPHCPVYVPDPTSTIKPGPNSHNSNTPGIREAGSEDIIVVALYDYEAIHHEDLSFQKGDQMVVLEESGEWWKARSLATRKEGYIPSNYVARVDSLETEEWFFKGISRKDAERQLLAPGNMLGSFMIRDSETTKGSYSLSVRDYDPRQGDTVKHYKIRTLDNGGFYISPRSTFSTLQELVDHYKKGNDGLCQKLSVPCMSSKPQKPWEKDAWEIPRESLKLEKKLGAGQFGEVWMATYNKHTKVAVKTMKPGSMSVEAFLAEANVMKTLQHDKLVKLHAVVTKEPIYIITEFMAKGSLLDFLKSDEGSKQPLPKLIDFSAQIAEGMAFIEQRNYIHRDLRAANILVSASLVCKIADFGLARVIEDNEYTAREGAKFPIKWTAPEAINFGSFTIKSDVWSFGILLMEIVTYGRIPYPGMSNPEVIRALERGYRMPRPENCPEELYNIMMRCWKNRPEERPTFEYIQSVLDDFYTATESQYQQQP
Sequence of BTK (Q06187 whole entry): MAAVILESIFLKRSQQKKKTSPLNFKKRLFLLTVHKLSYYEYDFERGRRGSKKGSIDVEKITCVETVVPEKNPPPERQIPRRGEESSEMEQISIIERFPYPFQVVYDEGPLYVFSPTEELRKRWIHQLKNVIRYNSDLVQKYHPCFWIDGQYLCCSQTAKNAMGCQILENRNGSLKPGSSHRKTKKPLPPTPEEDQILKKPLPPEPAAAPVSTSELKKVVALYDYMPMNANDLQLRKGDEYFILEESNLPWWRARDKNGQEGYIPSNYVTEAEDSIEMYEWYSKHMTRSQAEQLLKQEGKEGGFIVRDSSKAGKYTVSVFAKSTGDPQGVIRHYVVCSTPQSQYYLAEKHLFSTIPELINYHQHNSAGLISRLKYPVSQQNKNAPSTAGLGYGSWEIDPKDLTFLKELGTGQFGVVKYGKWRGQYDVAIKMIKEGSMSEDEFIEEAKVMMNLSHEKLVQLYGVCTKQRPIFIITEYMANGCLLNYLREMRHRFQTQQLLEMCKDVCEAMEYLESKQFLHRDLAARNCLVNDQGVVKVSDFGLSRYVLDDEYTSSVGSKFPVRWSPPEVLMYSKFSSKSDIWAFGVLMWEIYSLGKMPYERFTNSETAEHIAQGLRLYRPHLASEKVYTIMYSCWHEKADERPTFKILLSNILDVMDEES
Sequence of MAP2K5 (MEK5) (Q13163 whole entry): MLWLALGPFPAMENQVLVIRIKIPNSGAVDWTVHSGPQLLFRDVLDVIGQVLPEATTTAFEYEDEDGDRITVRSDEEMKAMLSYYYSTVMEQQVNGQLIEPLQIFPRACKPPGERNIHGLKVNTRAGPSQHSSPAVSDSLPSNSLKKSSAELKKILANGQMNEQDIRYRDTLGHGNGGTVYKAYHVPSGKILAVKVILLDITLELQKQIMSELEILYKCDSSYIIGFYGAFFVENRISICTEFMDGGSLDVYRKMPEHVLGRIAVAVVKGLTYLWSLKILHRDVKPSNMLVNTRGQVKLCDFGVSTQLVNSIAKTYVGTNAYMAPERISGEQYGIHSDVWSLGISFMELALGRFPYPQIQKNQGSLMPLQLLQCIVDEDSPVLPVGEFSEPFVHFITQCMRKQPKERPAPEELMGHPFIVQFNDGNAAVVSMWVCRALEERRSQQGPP
Sequence of PDGFRB (PDGFR beta) (P09619 33-1106): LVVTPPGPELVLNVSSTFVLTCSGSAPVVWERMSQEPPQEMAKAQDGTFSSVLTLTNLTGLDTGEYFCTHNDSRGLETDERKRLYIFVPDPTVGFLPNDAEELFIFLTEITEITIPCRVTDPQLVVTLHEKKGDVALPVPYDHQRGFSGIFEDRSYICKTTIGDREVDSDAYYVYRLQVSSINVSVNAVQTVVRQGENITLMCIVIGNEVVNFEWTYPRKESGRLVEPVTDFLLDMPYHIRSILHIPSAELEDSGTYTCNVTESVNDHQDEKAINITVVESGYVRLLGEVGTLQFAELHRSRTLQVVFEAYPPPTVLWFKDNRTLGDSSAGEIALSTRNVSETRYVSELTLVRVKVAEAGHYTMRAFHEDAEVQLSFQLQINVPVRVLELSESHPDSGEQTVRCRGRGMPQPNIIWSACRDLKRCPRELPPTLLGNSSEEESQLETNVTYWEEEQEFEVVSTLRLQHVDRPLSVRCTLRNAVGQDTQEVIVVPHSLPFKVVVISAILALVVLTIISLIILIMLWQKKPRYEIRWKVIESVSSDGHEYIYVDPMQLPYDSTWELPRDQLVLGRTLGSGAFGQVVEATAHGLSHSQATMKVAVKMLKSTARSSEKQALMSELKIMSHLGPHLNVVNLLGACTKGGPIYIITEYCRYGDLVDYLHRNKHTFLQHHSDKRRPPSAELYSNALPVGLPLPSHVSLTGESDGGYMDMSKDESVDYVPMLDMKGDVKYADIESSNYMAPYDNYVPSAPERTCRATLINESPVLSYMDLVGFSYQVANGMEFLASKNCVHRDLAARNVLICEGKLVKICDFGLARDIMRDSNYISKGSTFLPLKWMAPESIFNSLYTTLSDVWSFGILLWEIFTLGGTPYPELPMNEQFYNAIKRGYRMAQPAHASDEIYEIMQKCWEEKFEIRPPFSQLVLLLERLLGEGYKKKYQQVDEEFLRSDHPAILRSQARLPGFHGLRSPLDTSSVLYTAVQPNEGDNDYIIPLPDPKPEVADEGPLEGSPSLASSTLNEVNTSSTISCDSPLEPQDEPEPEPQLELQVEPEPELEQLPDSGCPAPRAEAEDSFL
Sequence of PDGFRA (PDGFR alpha) (P16234 24-1089): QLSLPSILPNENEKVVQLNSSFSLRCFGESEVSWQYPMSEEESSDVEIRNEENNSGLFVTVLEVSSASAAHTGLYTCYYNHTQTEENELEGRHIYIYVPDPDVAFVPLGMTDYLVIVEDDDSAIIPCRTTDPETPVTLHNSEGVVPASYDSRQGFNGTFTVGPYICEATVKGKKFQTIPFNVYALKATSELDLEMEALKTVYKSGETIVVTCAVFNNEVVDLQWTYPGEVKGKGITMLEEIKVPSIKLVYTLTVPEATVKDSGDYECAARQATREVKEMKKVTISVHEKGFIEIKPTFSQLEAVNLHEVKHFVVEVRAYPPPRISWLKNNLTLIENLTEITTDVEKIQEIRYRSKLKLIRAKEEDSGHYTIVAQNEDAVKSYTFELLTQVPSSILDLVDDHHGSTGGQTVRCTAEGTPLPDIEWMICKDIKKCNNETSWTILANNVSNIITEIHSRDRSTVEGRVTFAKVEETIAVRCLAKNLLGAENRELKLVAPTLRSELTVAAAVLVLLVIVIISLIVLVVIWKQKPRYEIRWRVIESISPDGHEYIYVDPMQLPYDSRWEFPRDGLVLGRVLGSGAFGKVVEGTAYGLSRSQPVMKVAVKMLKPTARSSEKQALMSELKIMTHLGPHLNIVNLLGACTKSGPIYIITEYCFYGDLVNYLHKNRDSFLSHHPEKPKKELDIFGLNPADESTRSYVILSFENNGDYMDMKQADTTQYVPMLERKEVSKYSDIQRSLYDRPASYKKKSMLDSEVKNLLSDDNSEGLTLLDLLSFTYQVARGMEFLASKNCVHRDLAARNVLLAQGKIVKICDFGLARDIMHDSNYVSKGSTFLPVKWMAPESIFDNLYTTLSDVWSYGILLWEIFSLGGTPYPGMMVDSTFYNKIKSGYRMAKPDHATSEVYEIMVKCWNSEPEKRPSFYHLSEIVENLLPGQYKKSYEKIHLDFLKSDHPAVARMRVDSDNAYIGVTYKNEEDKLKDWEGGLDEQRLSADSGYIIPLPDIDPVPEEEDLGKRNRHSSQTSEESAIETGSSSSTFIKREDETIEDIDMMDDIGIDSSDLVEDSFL
Sequence of SRMS (Srm) (Q9H3Y6 whole entry): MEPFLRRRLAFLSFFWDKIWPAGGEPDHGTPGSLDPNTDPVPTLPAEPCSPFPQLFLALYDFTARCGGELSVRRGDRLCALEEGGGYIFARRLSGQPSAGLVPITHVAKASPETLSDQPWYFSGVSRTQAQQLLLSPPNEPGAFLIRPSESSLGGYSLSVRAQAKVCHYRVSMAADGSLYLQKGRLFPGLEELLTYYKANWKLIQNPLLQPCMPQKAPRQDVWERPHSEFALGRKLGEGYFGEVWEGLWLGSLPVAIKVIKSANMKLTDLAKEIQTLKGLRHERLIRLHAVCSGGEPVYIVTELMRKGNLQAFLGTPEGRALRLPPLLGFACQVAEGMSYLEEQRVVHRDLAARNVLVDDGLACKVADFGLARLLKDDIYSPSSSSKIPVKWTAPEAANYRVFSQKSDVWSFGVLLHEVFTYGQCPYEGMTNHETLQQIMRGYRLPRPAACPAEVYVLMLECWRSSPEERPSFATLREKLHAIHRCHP

C=CC(=O)N1CCC[C@@H](n2nc(-c3ccc(Oc4ccccc4)cc3C)c3c(N)ncnc32)C1 [Compound 2, (R)-1-(3-(4-amino-3-(2-methyl-4-phenoxyphenyl)-1H-pyrazolo[3,4-d]pyrimidin-1-yl)piperidin-1-yl)prop-2-en-1-one]
inhibition at 1 µM (KIT): 15% | inhibition at 1 µM (PDGFRA (PDGFR alpha)): 16% | inhibition at 1 µM (PDGFRB (PDGFR beta)): 6% | inhibition at 1 µM (ERN1): 2% | inhibition at 1 µM (MAP2K5 (MEK5)): 32% | kinact/KI (BLK): 320000 M⁻¹ s⁻¹ | BLK kinact/Ki (BLK; listed as Monomethyl Analog): 316,000 M^-1S^-1 | kinact (BLK): 0.0034 s⁻¹ | kinact/KI (BMX): 81000 M⁻¹ s⁻¹ | BMX kinact/Ki (BMX; listed as Monomethyl Analog): 80,800 M^-1S^-1 | kinact (BMX): 0.0065 s⁻¹ | kinact (HCK): 0.0009 s⁻¹ | kinact/KI (HCK): 1730 M⁻¹ s⁻¹

C=CC(=O)N1CCCC(n2nc(-c3c(C)cc(Oc4ccccc4)cc3C)c3c(N)ncnc32)C1 (stereo in doubt) [Compound 3]
inhibition at 1 µM (KIT): 1% | inhibition at 1 µM (PDGFRA (PDGFR alpha)): 3% | inhibition at 1 µM (PDGFRB (PDGFR beta)): 0% | inhibition at 1 µM (SRMS (Srm)): 22% | inhibition at 1 µM (ERN1): 2% | inhibition at 1 µM (MAP2K5 (MEK5)): 10% | inhibition at 1 µM (RET M918T): 6% | inhibition at 1 µM (BTK): 100% | IC50 (BTK; BTK IC50, Z′-Lyte, [ATP] Km app, 1 h incubation, duplicate): 12.8 nM | Hillslope (BTK; BTK IC50 curve): 1.25 | inhibition at 0.000495 µM (BTK; read-out: % Inhibition Point 1): -4% | inhibition at 0.00152 µM (BTK; read-out: % Inhibition Point 1): 11% | inhibition at 0.00457 µM (BTK; read-out: % Inhibition Point 1): 23% | inhibition at 0.0137 µM (BTK; read-out: % Inhibition Point 1): 49% | inhibition at 0.0412 µM (BTK; read-out: % Inhibition Point 1): 84% | inhibition at 0.123 µM (BTK; read-out: % Inhibition Point 1): 97% | inhibition at 0.37 µM (BTK; read-out: % Inhibition Point 1): 98% | inhibition at 1.11 µM (BTK; read-out: % Inhibition Point 1): 100% | inhibition at 3.33 µM (BTK; read-out: % Inhibition Point 1): 98% | inhibition at 10 µM (BTK; read-out: % Inhibition Point 1): 98% | inhibition at 0.000495 µM (BTK; read-out: % Inhibition Point 2): 1% | inhibition at 0.00152 µM (BTK; read-out: % Inhibition Point 2): 5% | inhibition at 0.00457 µM (BTK; read-out: % Inhibition Point 2): 22% | inhibition at 0.0137 µM (BTK; read-out: % Inhibition Point 2): 49% | inhibition at 0.0412 µM (BTK; read-out: % Inhibition Point 2): 80% | inhibition at 0.123 µM (BTK; read-out: % Inhibition Point 2): 96% | inhibition at 0.37 µM (BTK; read-out: % Inhibition Point 2): 98% | inhibition at 1.11 µM (BTK; read-out: % Inhibition Point 2): 102% | inhibition at 3.33 µM (BTK; read-out: % Inhibition Point 2): 97% | inhibition at 10 µM (BTK; read-out: % Inhibition Point 2): 99% | IC50 (ITK): > 10000 nM | inhibition at 1 µM (ITK): 8% | ITK, BTK/Kinase (ITK; BTK selectivity from IC50 values): > 781 x | Hillslope (ITK; ITK IC50 curve): 1.28 | ITK IC50 (ITK; Z′-Lyte, [ATP] Km app, 1 h incubation, duplicate): no observable activities; also recorded: no observable ITK activity | inhibition at 0.00457 µM (ITK; read-out: % Inhibition Point 1): -1% | inhibition at 0.0137 µM (ITK; read-out: % Inhibition Point 1): -4% | inhibition at 0.0412 µM (ITK; read-out: % Inhibition Point 1): -4% | inhibition at 0.123 µM (ITK; read-out: % Inhibition Point 1): -2% | inhibition at 0.37 µM (ITK; read-out: % Inhibition Point 1): 5% | inhibition at 1.11 µM (ITK; read-out: % Inhibition Point 1): 8% | inhibition at 3.33 µM (ITK; read-out: % Inhibition Point 1): 13% | inhibition at 10 µM (ITK; read-out: % Inhibition Point 1): 51% | inhibition at 0.000495 µM (ITK; read-out: % Inhibition Point 2): 7% | inhibition at 0.00152 µM (ITK; read-out: % Inhibition Point 2): -5% | inhibition at 0.00457 µM (ITK; read-out: % Inhibition Point 2): -1% | inhibition at 0.0137 µM (ITK; read-out: % Inhibition Point 2): 1% | inhibition at 0.0412 µM (ITK; read-out: % Inhibition Point 2): -2% | inhibition at 0.123 µM (ITK; read-out: % Inhibition Point 2): 0% | inhibition at 0.37 µM (ITK; read-out: % Inhibition Point 2): 5% | inhibition at 1.11 µM (ITK; read-out: % Inhibition Point 2): 4% | inhibition at 3.33 µM (ITK; read-out: % Inhibition Point 2): 16% | inhibition at 10 µM (ITK; read-out: % Inhibition Point 2): 47% | kinact/KI (BLK): 35000 M⁻¹ s⁻¹ | BLK kinact/Ki (BLK; listed as Dimethyl Analog): 35,500 M^-1S^-1 | kinact (BLK): 0.0021 s⁻¹ | kinact/KI (BMX): 65000 M⁻¹ s⁻¹ | BMX kinact/Ki (BMX; listed as Dimethyl Analog): 64,800 M^-1S^-1 | kinact (BMX): 0.0053 s⁻¹ | kinact (HCK): 0.0001 s⁻¹ | kinact/KI (HCK): 5960 M⁻¹ s⁻¹
